Assay results as given in US9765115B2, “Inhibitors of metastasis, methods of generating such inhibitors and their therapeutic applications” (Board of Supervisors of Louisiana State University acting …, priority 2011, dated 2017).
“Also recorded” adds a separate entry of the source.

Columns and labels:
[1] = system: PC-3CTRwt cells; assay: Paracellular permeability (PCP), TRITC-dextran diffusion; format: cell-based
Experimental: For PCP measurements, cells were grown to confluence on Transwell filters. Tetra methyl rhodamine-dextran (1 mg/ml, ˜4 kDa, Sigma) was added to the upper chamber. Fluorescence of the lower chamber medium was measured in Modulus Microplate Reader (Turner Biosystems) at various time intervals.
TJs form a barrier that regulates the movement of ions, solutes and growth factors between cells. To detect whether CT affects the barrier, the diffusion of fluorophore-conjugated dextran was measured across polarized PC cell line monolayers, a procedure called paracellular permeability (PCP). FIG. 2B depicts CTR-C PDZ-binding motif mutation and tight junction (TJ) disruption as measured using PCP. Polarized PC-3V, PC-3-CTRwt and PC-3CTRΔESS cells were treated with or without 50 nM CT, and PCP determined by diffusion of ˜4 kDa TRITC-conjugated dextran from the upper to the lower chamber in one hour. The results are expressed as μg/ml/hour of TRITC-Dextran diffused ±SEM (n=6; *p<0.05 (−CT v +CT, One way ANOVA and Newman-Keul's test)). […]
The effect of CT on TJ functionality was tested by monitoring TER of PC-3CTRwt monolayers. […] TER was measured with EVOM volt-ohm meter. The results are expressed as TER ±SEM (Ωcm^2±SEM; n=6). […] PCP was determined by diffusion of ˜4 kDa TRITC-conjugated dextran from the upper to the lower chamber in one hour. […]

[2] = system: ZO-1, claudin-3 and occludin; assay: Subcellular distribution of TJ proteins (immunofluorescence, TX-100 soluble/insoluble fractions); format: cell-based
Experimental: Approximately 1×10^4 cells were grown to confluence on 0.4 μm 12-well Transwell™ filters (Costar, Mass.). After overnight serum starvation, cells were treated with or without 50 nM CT for 60 min, fixed with methanol and incubated with primary antisera (rabbit anti-ZO-1 IgG, Zymed, Calrsbad, Calif.; Claudin-3, CTR-FLAG). Immunostaining was visualized after incubation with TRITC-labelled secondary antibody (1:500). Controls with either non-immune goat IgG or no primary antisera were used in all studies. Digital photographs were taken with Retiga 1300 camera connected to a Nikon Optiphot-2 microscope equipped for epifluorescence, the images were captured at different wavelengths for TRITC and DAPI, were given red and blue pseudo colors respectively, and analyzed using IP Lab™ image analysis program.
Confluent 100 mm plates of each PC sublines were serum starved overnight, and treated with or without 50 nM CT for various periods. Soluble extract (cytosolic) was obtained by incubating cells with 10 mM Tris-HCl, pH-7.4 (containing 150 mM NaCl, 2 mM CaCl2, protease-phosphatase inhibitors cocktail, 1% Nonidet P-40 and 1% Triton-X-100) for 30 min with occasional agitation. After washing the plates with TBS (containing protease inhibitors), the insoluble fraction (plasma membrane-associated) was scraped out from the plates with TBS containing 0.5% SDS, 1% Nonidet P-40, protease inhibitors. The triton X-100-insoluble fraction was collected after homogenizing and centrifuging at 14,000×g for 5 min at 4 C, and protein content of the supernatants was determined using Bio-Rad Reagent (Bio-Rad, Hercules, Calif.).
The lysate fractions were boiled for 5 min in 2× Laemmli buffer. The proteins were fractionated by SDS-PAGE electrophoresis, and electrically transferred to a nitrocellulose membrane. The blots were incubated the appropriate antisera followed by HRP-conjugated secondary antibody; and the blots were developed with ECL. To control for protein loading and transfer, the blots were stripped, and reprobed with either β-actin (insoluble) or α-tubulin (soluble) antibody. The same experiment was repeated two more times.
To test whether CT-mediated loss of TJ functionality is caused by disassembly of TJs, subcellular distribution of key TJ proteins was examined. Polarized PC-3CTRwt cells were treated with 50 nM CT for 30 min, and then processed for immunofluorescence with anti-FLAG (CTR), anti-ZO-1 and anti-claudin-3 antibodies.
It is known that junctional proteins are functional only when they are at cell-cell contacts on the membrane (Shin et al., 2006). Therefore, the subcellular distribution of TJ proteins was analyzed by immunoblotting TX-soluble (cytoplasmic) and TX-insoluble (membrane) fractions of cell lysates. […] The endocytosis of TJ proteins was rapid, and increased progressively throughout the experimental period of four hours. Specifically, translocation of ZO-1 from the insoluble to the soluble compartment was quicker and observed within 1 min of CT stimulus. Similar translocation of occludin was observed after ten min, and that of claudin-3 after 30 min of CT stimulus.
To test whether specific PKA inhibitors abrogate CT-induced TJ disassembly, two specific, well-characterized PKA inhibitors, mPKI and H-89, were used. PC-3CTRwt cells were treated with CT (50 nM for 30 min) in the presence of mPKI (100 nM) or H-89 (10 μM). Either of these inhibitors was added 15 min prior to the addition of CT. […]

Substance: calcitonin [CT]
- PCP ([1]; 50 nM CT): increased PCP significantly; also recorded: eighty percent
- PCP at multiple CT doses ([1]; CT doses of 10 nM or higher): induced an increase
- time to translocation of ZO-1 ([2]; CT 50 nM): ≤ 1 min
- time to translocation of claudin-3 ([2]; CT 50 nM): 30 min
- time to translocation of occludin ([2]; CT 50 nM): after ten min
- localization of CTR, ZO-1 and claudin-3 (immunofluorescence) ([2]; PC-3CTRwt cells, 50 nM CT, 30 min): loss of these proteins at cell-cell contacts and their internalization
- endocytosis of ZO-1, claudin 3 or occludin ([2]; cells expressing CTRΔESS or ZO-1ΔPDZ3, CT 50 nM): could not induce endocytosis
